This is an account of results in US11191843B2, “Multi-arm targeting anti-cancer conjugate” (priority 2017, dated 2021).

This test concerns orthotopic U87MG brain glioma. The test is described as follows: Effect on survival in orthotopic U87MG brain glioma model in nude mice. Type of test: in vivo. The settings on record: BALB/c nude mice, 40 mg·kg^-1 (as irinotecan), i.v. via tail, Q4D×3, dosing from day 12 after inoculation.

Structures are written as SMILES.

Experimental: Experimental animals: Female BALB/c nude mice (number of animals: 150, weeks of age: 6 to 8 weeks) were purchased from Beijing Vital River Laboratory Animal Technology Co., Ltd., and housed in an SPF animal room. The temperature was 20° C. to 25° C., the relative humidity was 40% to 70%, and the light and dark were respectively 12 hours. The animals had free access to water and food. After about one week of normal feeding, upon a veterinary inspection, mice with good physical signs and conditions could be selected for this experiment. A marking pen was used to mark the base of the tails of the animals before the grouping, and each animal was marked by ear clipping after the grouping.
Transplantable tumor cell strain: Brain glioma cell U87MG, derived from Cell Bank of Committee on Type Culture Collection of Chinese Academy of Science (CAS, stored frozen in liquid nitrogen in the laboratory).
According to the condition of cell growth, the cells were passaged once or twice every week, and were passaged in a ratio of 1:2 to 1:6.
Preparation of the animal model: U87MG cells in logarithmic phase of growth were collected. […] The cells were charged into a 50 mL centrifuge tube after being pipetted with a pipettor to make them evenly dispersed, and the centrifuge tube was placed in an ice box. […]
Data recording and calculation formula: The survival time of the animals were recorded.

With `CCc1c2c(nc3ccc(OC(=O)N4CCC(N5CCCCC5)CC4)cc13)-c1cc3c(c(=O)n1C2)COC(=O)[C@]3(O)CC` [irinotecan], the Median survival time stood at 27 days.
